Literature values, collected in article PMC5733301, “Antitubercular Nitroimidazoles Revisited: Synthesis and Activity of the Authentic 3-Nitro Isomer of Pretomanid” (ACS Medicinal Chemistry Letters, 2017).

Experiments:
[1] = test system: M. tb having mutations in the nitroreductase Ddn; parameters: method as in PMID 19209889; details: ref [22]; cited from earlier work
[2] = test system: M. tb having mutations in the nitroreductase Ddn; parameters: method as in PMID 19209889; details: ref [22]; cited from earlier work; remark: listed apart in the source

O=[N+]([O-])c1cn2c(n1)O[C@H](COCc1ccc(OC(F)(F)F)cc1)C2 [compound 20]
anaerobic MIC90 against Ddn mutant M. tb [1]: 62.5 to 125 µM
aerobic MIC99 against Ddn mutant M. tb [2]: > 100 µM
